Structures can show the parent of a compound that is named as a salt. Where two headings read alike, the source gives them in different places.
How the values were obtained:
[1] = Hygroscopicity by dynamic vapor sorption (DVS); format: physicochemical; details: for Hygroscopicity class: Chinese Pharmacopoeia 2015 guideline 9103, 25° C.; for Weight gain under 80% Relative Humidity: about 10 mg sample
Description: Dynamic vapor sorption (DVS) was applied to assess hygroscopicity of Form E and Form M in patent CN103781770B with about 10 mg of samples. The DVS plots of Form E and Form M were substantially as depicted in FIG. 8 and FIG. 9, respectively.
About hygroscopicity characterization description and definition of hygroscopicity (Chinese Pharmacopoeia 2015 edition general notices 9103 Drug hygroscopicity test guidelines, test at 25° C.+/−1° C., 80% Relative Humidity). • deliquescent: Sufficient water is absorbed to form a liquid; • very hygroscopic: Increase in mass is equal to or greater than 15 percent; • hygroscopic: Increase in mass is less than 15 percent and equal to or greater than 2 percent; • slightly hygroscopic: Increase in mass is less than 2 percent and equal to or greater than 0.2 percent. • no or almost no hygroscopic: Increase in mass is less than 0.2%.

[2] = Stability of solid form on storage, checked by XRPD; format: physicochemical; details: for Final Solid Form: 11 months, XRPD
Description: Solid samples of Form E were stored under conditions of 25° C./60% relative humidity (RH) and 40° C./75% RH for 11 months and XRPD were tested. The XRPD patterns before and after storage were substantially as depicted in FIG. 7.
Form E remains stable for at least 11 months under conditions of 25° C./60% RH and 40° C./75% RH. […] The XRPD patterns overlay are substantially as depicted in FIG. 7, in which the top, middle and bottom patterns correspond to the initial sample, sample stored at 25° C./60% RH for 11 months and sample stored at 40° C./75% RH for 11 months, respectively.

[3] = cited from earlier work
[4] = converts to liquid crystalline form B spontaneously when stored for some time; cited from earlier work

O=C(O)c1ccc2nc(-c3cc(Cl)cc(Cl)c3)oc2c1 [Form E, 6-carboxy-2-(3,5-dichlorophenyl)-benzoxazole meglumine salt]
Hygroscopicity class ([1]; 80% RH): slightly hygroscopic (Increase in mass is less than 2 percent and equal to or greater than 0.2 percent)
Weight gain under 80% Relative Humidity ([1]; DVS, 80% RH): 1.82%
Time the form remains stable ([2]; 25° C./60% RH and 40° C./75% RH): at least 11 months
Final Solid Form ([2]; 25° C./60% RH): Form E
Final Solid Form ([2]; 40° C./75% RH): Form E

O=C(O)c1ccc2nc(-c3cc(Cl)cc(Cl)c3)oc2c1 [Form M, 6-carboxy-2-(3,5-dichlorophenyl)-benzoxazole meglumine salt]
Hygroscopicity class ([1]; 80% RH): hygroscopic (Increase in mass is less than 15 percent and equal to or greater than 2 percent)
Weight gain under 75% RH ([1]; DVS, 75% RH): 2.98%
Weight gain under 80% Relative Humidity ([1]; DVS, 80% RH): 2.98%-4.65%
Weight gain under 80% RH, inferred from FIG. 8 ([1]; DVS, 80% RH, inferred from the 75% RH value): > 2.98%
Hygroscopicity (in words) ([1]; background statement, "Studies show"): high

O=C(O)c1ccc2nc(-c3cc(Cl)cc(Cl)c3)oc2c1 [Liquid crystalline form B, 6-carboxy-2-(3,5-dichlorophenyl)-benzoxazole meglumine salt]
Weight gain when stored at 90% relative humidity ([3]; 90% relative humidity): up to 25%
Hygroscopicity (in words) ([3]; prior-art description): highly deliquescent

O=C(O)c1ccc2nc(-c3cc(Cl)cc(Cl)c3)oc2c1 [amorphous form A, 6-carboxy-2-(3,5-dichlorophenyl)-benzoxazole meglumine salt]
Stability (in words) [4]: poor stability

From US10577334B2, “Crystalline form E of tafamidis meglumine, process for preparation and use thereof” (Crystal Pharmatech Co., Ltd., priority 2016, dated 2020)
